In US20220380341A1, “INHIBITORS OF HIV-1 NEF FOR THE TREATMENT OF HIV DISEASE” (priority 2018, published 2022):
Like-named read-outs stand apart in the source and are kept apart here.

What was measured:
[1] = test system: TZM-bl cell line; assay type: cell-based; conditions: human, 1 μM
In short: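 Luciferase read-out 48 h post-infection; compound at 1 μM during HIV-1NL4-3 infection of TZM-bl cells. Percent inhibition scaled to DMSO wild-type virus (0%) and DMSO Nef-defective virus (100% of Nef-dependent effect). Viability checked separately in uninfected cells by Cell Titer Blue.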

[2] = test system: HIV-1NL4-3; test: HIV-1 infectivity assay in TZM-bl reporter cell line (LTR-luciferase, 48 h); assay type: cell-based; conditions: Human immunodeficiency virus 1, TZM-bl
In short: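 Compounds were tested at 1 μM in TZM-bl cells infected with HIV-1NL4-3. Infectivity was read as luciferase signal 48 h after infection and expressed as percent inhibition, normalized between DMSO-treated wild-type infection (0%) and DMSO-treated Nef-defective HIV-1 infection (100% of the Nef-dependent effect).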

[3] = biological target: HIV-1 NefNL4-3 (Human immunodeficiency virus type 1 group M subtype B, UniProt P03406, A33V/T15A/T51N/V11I); test: Surface plasmon resonance binding to recombinant full-length Nef (NL4-3); conditions: for RU30/RUNef (extent of binding): response units at 30 μM relative to Nef immobilized on the SPR chip
[4] = 48 h, Table 1, TZM-bl cells, 1 μM, 48 h, 100% = Nef-defective HIV-1, read-out: HIV-1 Infectivity % Inhibition Norm. to Δ-Nef @ 1 μM
[5] = Nef NL4-3 Binding, SPR 2-state fitting KD, Table 1, 2-step induced-fit model
[6] = 1.0 μM, TZM-bl reporter cell line, Table 4, read-out: % Infectivity Inhibition
[7] = KD, M, Table 4, SPR fit 2-step induced fit, KD = koff/kon × koff2/(koff2 + kon2)
[8] = Table 4, 2-step induced fit, T = 1/koff2
[9] = KD, M, Table 4, SPR fit 1:1 Langmuir, KD = koff/kon
[10] = Table 4, 1:1 Langmuir fit, T = 1/koff

Row | Compound | Percent Viability @ 1 μM (TZM-bl cells) [1] | inhibition at 1 µM [2, 4] | Kd [3] | Kd [3, 5] | Kd ([3]; read-out: Nef NL4-3 Binding, SPR 1:1 or 2-site fitting KD2, Table 1, 2-site fit, second component) | % Cell Viability [1] | inhibition at 1 µM [2, 6] | Kd [3, 7] | T, minutes (residence time) [3, 8] | RU30/RUNef (extent of binding) [3] | Kd [3, 9] | T, minutes (residence time) [3, 10] | Nef NL4-3 Binding, SPR 1:1 or 2-site fitting KD1 ([3]; Table 1, 1:1 Langmuir fit where the KD2 cell says '1 to 1 fitting', else 2-site fit)
1 | CS(=O)(=O)c1ccc(-c2nn(-c3nc4cc(F)ccc4[nH]3)c(O)c2CCC2CCOCC2)cc1 [Compound I-169, 1-(5-fluoro-1H-1,3-benzodiazol-2-yl)-3-(4-methanesulfonylphenyl)-4-[2-(oxan-4-yl)ethyl]-1H-pyrazol-5-ol] | 98.7% | -4.8% | 465 nM | 7400 nM | 1810 nM | – | – | – | – | – | – | – | –
2 | COC(=O)c1ccc(CCc2c(-c3ccccc3)nn(-c3nc4cc(Cl)ccc4[nH]3)c2O)cc1 [Compound I-171, methyl 4-{2-[1-(5-chloro-1H-1,3-benzodiazol-2-yl)-5-hydroxy-3-phenyl-1H-pyrazol-4-yl]ethyl}benzoate] | 75.8% | 131% | 892 nM | 13.3 nM | – | 75.8% | 100% | 13.3 nM | 7.82E + 02 minutes | 2.77E- 02 | – | – | –
3 | Oc1c(CCc2ccc(F)cc2)c(-c2ccc(F)cc2)nn1-c1nc2cc(Cl)ccc2[nH]1 [Compound I-172, 1-(5-chloro-1H-1,3-benzodiazol-2-yl)-3-(4-fluoropheny1)-4-[2-(4-fluorophenyl)ethyl]-1H-pyrazol-5-ol] | 96.5% | 56% | 250 nM | 69.3 nM | – | 96.5% | 56% | 69.3 nM | 1.73E + 01 minutes | 4.28E- 02 | – | – | –
4 | Oc1c(CC2CCOCC2)c(-c2ccc(F)cc2)nn1-c1nc2cc(F)ccc2[nH]1 [Compound I-173, 1-(5-fluoro-1H-1,3-benzodiazol-2-yl)-3-(4-fluorophenyl)-4-[(oxan-4-yl)methyl]-1H-pyrazol-5-ol] | – | – | – | – | – | 85.7% | 97.2% | 0.348 nM | 7.12E + 04 minutes | 5.24E- 03 | – | – | –
5 | Oc1c(CC2CCOCC2)c(C2CC2)nn1-c1nc2ccccc2[nH]1 [Compound I-174, 1-(1H-1,3-benzodiazol-2-yl)-3-cyclopropyl-4-[(oxan-4-yl)methyl]-1H-pyrazol-5-ol] | 101.5% | 11.9% | 1370 nM | – | – | 100% | 11.9% | – | – | 3.94E- 03 | 1370 nM | 6.54E + 00 minutes | –
6 | Oc1c(CC2CCCOC2)c(-c2ccc(F)cc2)nn1-c1nc2ccccc2[nH]1 (centres unmarked) [Compound I-175, 1-(1H-1,3-benzodiazol-2-yl)-3-(4-fluorophenyl)-4-[(oxan-3-yl)methyl]-1H-pyrazol-5-ol] | – | – | – | – | – | 88.8% | 67.2% | – | – | 6.67E- 04 | 605 nM | 7.72E + 00 minutes | –
7 | Oc1c(CC2CCOCC2)c(C2CC(F)(F)C2)nn1-c1nc2ccccc2[nH]1 [Compound I-176, 1-(1H-1,3-benzodiazol-2-yl)-3-(3,3-difluorocyclobutyl)-4-[(oxan-4-yl)methyl]-1H-pyrazol-5-ol] | – | – | – | – | – | 98.4% | 0% | – | – | 1.52E- 03 | 2240 nM | 5.08E + 00 minutes | –
8 | Oc1c(CC2CCOCC2)c(CCC2CCOCC2)nn1-c1nc2ccccc2[nH]1 [Compound I-178, 1-(1H-1,3-benzodiazol-2-yl)-3-[2-(oxan-4-yl)ethyl]-4-[(oxan-4-yl)methyl]-1H-pyrazol-5-ol] | – | – | – | – | – | 97.9% | 0% | 10900 nM | 7.72E + 00 minutes | 8.86E- 03 | – | – | –
9 | CC(C)(C)c1nn(-c2nc3ccccc3[nH]2)c(O)c1CC1CCOCC1 [Compound I-180, 1-(1H-1,3-benzodiazol-2-yl)-3-tert-butyl-4-[(oxan-4-yl)methyl]-1H-pyrazol-5-ol] | – | – | – | – | – | 100% | 74.8% | – | – | 2.62E- 03 | 7190 nM | 2.48E + 00 minutes | –
10 | Oc1c(CCC2CCOCC2)c(-c2ccc(F)cc2)nn1-c1nc2ccccc2[nH]1 [Compound I-182, 1-(1H-1,3-benzodiazol-2-yl)-3-(4-fluorophenyl)-4-[2-(oxan-4-yl)ethyl]-1H-pyrazol-5-ol] | – | – | – | – | – | 90% | 100% | 4420 nM | 9.98E + 00 minutes | 1.11E- 02 | – | – | –
11 | Oc1c(CC2CCOCC2)c(-c2ccccc2)nn1-c1nc2ccccc2[nH]1 [Compound I-183, 1-(1H-1,3-benzodiazol-2-yl)-4-[(oxan-4-yl)methyl]-3-phenyl-1H-pyrazol-5-ol] | – | – | – | – | – | 100% | 37.8% | – | – | 1.71E- 03 | 2270 nM | 7.61E + 00 minutes | –
12 | Oc1c(CC2CCOCC2)c(-c2cccc(F)c2)nn1-c1nc2ccccc2[nH]1 [Compound I-184, 1-(1H-1,3-benzodiazol-2-yl)-3-(3-fluorophenyl)-4-[(oxan-4-yl)methyl]-1H-pyrazol-5-ol] | – | – | – | – | – | 100% | 100% | – | – | 2.48E- 03 | 3520 nM | 6.46E + 00 minutes | –
13 | Oc1c(CC2CCOCC2)c(-c2ccc(F)c(F)c2)nn1-c1nc2ccccc2[nH]1 [Compound I-185, 1-(1H-1,3-benzodiazol-2-yl)-3-(3,4-difluorophenyl)-4-[(oxan-4-yl)methyl]-1H-pyrazol-5-ol] | – | – | – | – | – | 95.1% | 100% | 3400 nM | 1.04E + 01 minutes | 4.57E- 03 | – | – | –
14 | Oc1c(CC2CCOCC2)c(-c2ccccc2F)nn1-c1nc2ccccc2[nH]1 [Compound I-186, 1-(1H-1,3-benzodiazol-2-yl)-3-(2-fluorophenyl)-4-[(oxan-4-yl)methyl]-1H-pyrazol-5-ol] | – | – | – | – | – | 99.3% | 61.5% | 11700 nM | 7.72E + 00 minutes | 1.62E- 02 | – | – | –
15 | Oc1c(CC2CCOCC2)c(-c2ccc(F)cc2F)nn1-c1nc2ccccc2[nH]1 [Compound I-187, 1-(1H-1,3-benzodiazol-2-yl)-3-(2,4-difluorophenyl)-4-[(oxan-4-yl)methyl]-1H-pyrazol-5-ol] | – | – | – | – | – | 100% | 20.2% | 0.0307 nM | 1.02E + 06 minutes | 8.62E- 03 | – | – | –
16 | CC(C)(C)OC(=O)N1CCC(Cc2nn(-c3nc4ccccc4[nH]3)c(O)c2CCc2ccc(F)cc2)C1 (centres unmarked) [Compound I-206, tert-butyl 3-{[1-(1H-1,3-benzodiazol-2-yl)-4-[2-(4-fluorophenyl)ethyl]-5-hydroxy-1H-pyrazol-3-yl]methyl}pyrrolidine-1-carboxylate] | 90.6% | 35.2% | – | – | – | – | – | – | – | – | – | – | No Interaction
17 | CC(C)(C)OC(=O)c1ccc(-c2nn(-c3nc4ccccc4[nH]3)c(O)c2CCc2ccc(F)cc2)cc1 [Compound I-208, tert-butyl 4-[1-(1H-1,3-benzodiazol-2-yl)-4-[2-(4-fluorophenyl)ethyl]-5-hydroxy-1H-pyrazol-3-yl]benzoate] | 90.6% | 39.2% | 13800 nM | 67800 nM | – | 90.6% | 39.2% | 67800 nM | 3.95E- 02 minutes | 1.63E- 02 | – | – | –
